According to patent publication US20120059024A1 (priority 2009, published 2012):
“And” between values parts separate entries of the source, which are not always exact repeats. Identical values can stand only once. Like-named read-outs stand apart in the source and are kept apart here.

Experiments:
[1] = in vivo, cited from earlier work
young adult Wistar rats = conditions: intraperitoneal
[2] = Mean Equivalent Daily Dose (MEDD) conversion table for opioids; assay type: in vivo
human volunteers = test: Human drug liking study; conditions: any dose of oxycodone alone vs same dose combined with 100 mg flupirtine, oral capsule

SMILES | MEDD-Factor ([1]; po) | MEDD-Factor ([1]; sc) | MEDD-Factor ([1]; iv) | further results
COc1ccc2c3c1O[C@H]1[C@@H](O)C=C[C@H]4[C@@H](C2)N(C)CC[C@@]341 [Codeine] | 0.05 | 0.1 |  | MEDD-Factor [1]: 0.1 and 0.05
CC(=O)Oc1ccc2c3c1O[C@H]1[C@@H](OC(C)=O)C=C[C@H]4[C@@H](C2)N(C)CC[C@@]341 [Diamorphine] | 0.65 | 1.3 |  | 
COc1ccc2c3c1O[C@H]1C(=O)CC[C@H]4[C@@H](C2)N(C)CC[C@]314 [Hydrocodone] | 0.4 |  |  | 
CN1CC[C@]23CCCC[C@H]2[C@H]1Cc1ccc(O)cc13 [Levo-dromoran] |  | 5 |  | MEDD-Factor [1]: 0.25
CCOC(=O)C1(c2ccccc2)CCN(C)CC1 [Meperidine] | 0.05 | 0.1 | 0.1 | 
CCC(=O)C(CC(C)N(C)C)(c1ccccc1)c1ccccc1 (stereo not drawn) [Methadone] | 4 | 8 | 8 | 
CN1CC[C@]23c4c5ccc(O)c4O[C@H]2[C@@H](O)C=C[C@H]3[C@H]1C5 [Morphine] | 0.4 | 1 | 1 | sedation (young adult Wistar rats; 1.6 mg/kg morphine): not sedating; dose equivalent to a 100 mg dose of morphine administered orally ([2]; administered intravenously): 40 mg
COc1ccc2c3c1O[C@H]1C(=O)CC[C@@]4(O)[C@@H](C2)N(C)CC[C@]314 [Oxycodone] | 0.63 | 1.5 |  | subject preference (drug liking) (human volunteers): preferred to, or no less preferred to; dose equivalent to a 100 mg dose of morphine administered orally ([2]; orally administered): 63 mg
COc1cccc(C2(O)CCCCC2CN(C)C)c1 (stereo not drawn) [Tramadol] | 0.05 | 0.1 |  | 
CCOC(=O)Nc1ccc(NCc2ccc(F)cc2)nc1N [flupirtine] |  |  |  | sedation (young adult Wistar rats; 10 mg/kg flupirtine, criteria of Goodchild et al. 2008): non-sedating; sedation (young adult Wistar rats; 20 mg/kg flupirtine, criteria of Goodchild et al. 2008): sedating
